From patent publication US20040138272A1, “1,4-Substituted cyclohexane derivatives” (priority 2002, published 2004)
Entries after “also recorded” stand apart in the source; their conditions may differ.

What was measured:
[1] = tested on: PC12 cells on MAG substrates; test: Bioassay of PC12 neurite growth on growth inhibitory myelin-associated glycoprotein (MAG) substrates; format: cell-based
Description: PC-12 cells (ATCC CRL-1721) typically extend neurites in response to NGF, but when plated on inhibitory substrates, this outgrowth is inhibited and the cells remain round. We tested the ability of the new compound to grow neurites when plated on inhibitory substrates.
We used PC12 cells obtained from the American Type Culture Collection. PC12 cells were grown in Dulbecco's modified eagle's medium (DMEM) with 10% horse serum and 5% fetal bovine serum. To test compounds for the ability to overcome growth inhibition, PC12 cells were collected by detaching with trypsin-EDTA (0.05%), then resuspended in DMEM, 1% FBS, and 50 ng/ml nerve growth factor before plating on MAG substrates. MAG used for substrates was purified from myelin after extraction in 1% octylglucoside and separation by ion exchange chromatography (McKerracher et al. 1994, Neuron 13:805-811). Test substrates were prepared as uniform substrates in 96-well plates by drying overnight in the laminar flow hood (Nalge Nunc, Naperville, Ill.). Plates were precoated with polylysine (100 μg/ml) for 3 hours at 37° C., then washed and dried approx. 1 hour. MAG was prepared as a substrate by drying down 8 μg of protein overnight. After plating on the MAG substrate, the cells were grown at 37 C. for two days in the presence or absence of test compound (BA1003, BA1016, BA1017) to allow neurite growth. Polylysine substrates were used as a positive control. Quantitative analysis of neurite outgrowth was with the aid of Northern Eclipse software (Empix Imaging, Mississauga, Ontario). Data analysis and statistics were with Microsoft Excel.
Referring to FIG. 4 there is shown a graph illustrative of experiments performed in triplicate testing the ability of BA-1003, BA-1016 and BA-1017 to overcome growth inhibition by MAG. PC12 cells were plated on MAG substrates alone (MAG) or MAG substrates in the presence of 0.31 uM, 3.1 um or 31 um concentrations of the test compound. The numbers of neurons that grew neurites were scored, and are shown as the percentage of neurite growth.

[2] = tested on: retinal ganglion cells (RGC); test: Retinal ganglion cell survival 7 days after optic nerve axotomy, intravitreal injection; format: in vivo, rat; conditions: for % Survival / Average RGC counts: 7 days after axotomy
Source text: The retinal ganglion cell (RGC) response to injury and ischemia has been well documented (Berkelaar et al., 1994; Selles-Navarro et al., 1996; Vidal-Sanz et al., 1988; Villegas-Perez et al., 1998; Villegas-Perez et al., 1993). Transection of the optic nerve (ON) in the adult rat, as a model of fiber tract lesion in the adult mammalian CNS, results in delayed, mainly apoptotic death of 80-90% of retinal ganglion cells (RGCs) within 14 days post-lesion. Because of good surgical accessibility of the retina and the optic nerve, the retino-tectal projection represents not only a convenient model to study the molecular mechanisms underlying neuronal death but also serves as a suitable system for investigating potential neuroprotective agents in vivo.
After optic nerve transection, many of the retinal ganglion cells (RGC) in the eye die by apoptosis. The ability of BA-1016 to support RGC cell survival after optic nerve injury was tested. A single injection of BA-1016 was made in the eye, and one week later cell survival was assessed. Three animals were examined for each treatment group. Cell survival was improved one week after BA-1016. Neurotrophic factors that are known to rescue RGCs also give improved cell surival one week after axotomy, but multiple or chronic application is needed to increase the number of surviving cells.
Experiments were performed on adult female CD rats (180-200 g; Charles River, Canada). Animals were cared for according to the Canadian Council on Animal Care. Rats were under general anaesthesia with isofluorane connected to Moduflex Access anaesthesia machine during experimental procedures. Ophthalmic eye ointment (Polysporin) was applied to prevent corneal desiccation. […] All rats were pre-labelled with Fluorogold one week prior to optic nerve lesion.
One week after Fluorogold application, the left optic nerve was transected 1 mm from the eye. […] There are blood vessels on pia and optic nerve. The pia mater sheath was lifted and a lateral incision exposed the optic nerve. It was important not to cut the optic nerve before cutting the pia. When pia was cut, the optic nerve was moved gently to dislodge it from its sheath so that the scissors could be slipped under it to cut it. It was important to not pull the nerve at this point to avoid compromising the blood supply. When the optic nerve was well exposed, small scissors were slid tangentially under optic nerve, making sure to see their end on other side of the nerve, then cutting with one clean cut at 1 mm from the eye. Scissor blades were used as a reference for the 1 mm distance.
In the group of animals assigned to receive intravitreal injection after axotomy, the compounds of interest were injected into the vitreous space. […] The needle was removed after one minute. […]
A binocular microscope was used to view the eye during injection. The skin was closed with staples (auto clips) and the integrity of the retinal vasculature was evaluated by a postoperative ophthalmoscopy using a water-covered microscope slide. […] Finally the animals were returned to the cage and closely monitored until awakened
Seven days after axotomy, animals were killed by injecting an overdose of Chloral hydrate intraperitoneally and then they were fixed by perfusion with 4% paraformaldehyde (PFA), 0.1 M phosphate buffer; the eyes were remove carefully transecting the ocular muscles with scissors and forceps. […] RGCs are examined under the fluorescence microscope with an UV filter (365/420). […]

(R)-trans-4-(But-3′-en-1′-amino)-N-(4″-pyridyl)cyclohexane Carboxamide Dihydrochloride [BA-1016]
neurite outgrowth on MAG substrates at the lowest concentration tested ([1]; PC12 cells, 0.31 uM): better neurite outgrowth | neurite outgrowth on inhibitory MAG substrates (FIG. 4) ([1]; PC12 cells, 0.31, 3.1 or 31 uM, Dihydrochloride): can promote neurite outgrowth; also recorded: able to overcome growth inhibition by MAG | % Survival ([2]; Axotomy + 0.1 mM): 59% | Average RGC counts ([2]; Axotomy + 0.1 mM): 1352 | % Survival ([2]; Axotomy + 1 mM): 60% | Average RGC counts ([2]; Axotomy + 1 mM): 1378 | RGC cell survival after optic nerve injury ([2]; single injection in the eye, one week): improved
